Earlier results in patent US20050226814A1, “Diagnostic method and kit for implantation of a sustained release drug-delivery implant with a steroid” (Bausch & Lomb Incorporated, priority 2004, published 2005).

Legend:
[1] = system: proliferative vitreoretinopathy; conditions: injected into the sub-conjuctival area
[2] = system: retinochoroid disorders; conditions: injection into the eye of a patient

Row | Compound | effect on proliferative vitreoretinopathy [1] | long-term effect [2]
1 | C[C@]12CCC(=O)C=C1CC[C@@H]1[C@@H]2[C@@H](O)C[C@@]2(C)[C@H]1CC[C@]2(O)C(=O)CO [hydrocortisone] | inhibited proliferative vitreoretinopathy | –
2 | C[C@]12C=CC(=O)C=C1CC[C@H]1[C@@H]3C[C@@H](O)[C@](O)(C(=O)CO)[C@@]3(C)C[C@H](O)[C@@]12F [trimacinolone, triamcinolone] | – | did not have a significantly long-term effect
